Assay results taken from US10285989B2, “Pyrimidinone amide compounds as PDE2 inhibitors” (Merck Sharp & Dohme Corp., priority 2015, dated 2019).
Read-outs that look alike come from different tables or passages of the source.

Columns and labels:
human PDE2A1 = human PDE2A1 (Homo sapiens (Human), UniProt O00408); experiment: PDE2 IMAP FP inhibition assay, human PDE2A1 (selectivity panel format); format: biochemical
Experimental: Selectivity for PDE2, as compared to other PDE families, was assessed using the IMAP® technology. Human PDE10A2 enzyme was prepared from cytosolic fractions of transiently transfected HEK cells.
A Labcyte POD 810 (Labcyte, Sunnyvale, Calif.) was used to dispense 200 nL from each well of the titration plate to make eleven copies of the assay plate for each titration, one copy for each PDE enzyme. A solution of each enzyme (dilution from aliquots, sufficient to produce 20% substrate conversion) and a separate solution of FAM-labeled cAMP or FAM-labeled cGMP from Molecular Devices (Sunnyvale, Calif., product # R7506 or cGMP#R7508), at a final concentration of 50 nM were made in the assay buffer (10 mM Tris HCl, pH 7.2, 10 mM MgCl2, 0.05% NaN3 0.01% Tween-20, and 1 mM DTT). Note that the substrate for PDE2 is 50 nM FAM cAMP containing 1000 nM of cGMP. The enzyme and the substrate were then added to the assay plates in two consecutive additions of 10 μL and then shaken to mix. The reaction was allowed to proceed at room temperature for 60 minutes. A binding solution was then made from the kit components, comprised of 80% Solution A, 20% Solution B and binding reagent at a volume of 1/600 the total binding solution. The enzymatic reaction was stopped by addition of 60 μL of the binding solution to each well of the assay plate. The plates were sealed and shaken for 10 seconds. The plates were incubated at room temperature for one hour, then the parallel and perpendicular fluorescence was measured using a Tecan Genios Pro plate reader (Tecan, Switzerland). […] The intrinsic PDE2 inhibitory activity of a compound which may be used in accordance with the present invention may be determined by these assays. […]

Rhesus PDE2A3 = Rhesus PDE2A3 (Macaca mulatta, UniProt B3VTJ2); experiment: PDE2 fluorescence polarization (IMAP FP) inhibition assay, rhesus PDE2A3; format: biochemical, rhesus macaque
Experimental: A Labcyte Echo 555 (Labcyte, Sunnyvale, Calif.) is used to dispense 200 nL from each well of the titration plate to the 384 well assay plate. Ten microliters of a solution of enzyme (1/2000 final dilution from aliquots; sufficient to produce 20% substrate conversion) was added to the assay plate. Next 10 uL of a separate solution of the substrate FAM-labeled cAMP (50 nM final concentration product # R^7506 from Molecular Devices) and the activator cGMP (1 uM final concentration), prepared in the assay buffer (10 mM Tris HCl, pH 7.2, 10 mM MgCl2, 0.05% NaN3 0.01% Tween-20, and 1 mM DTT) was added to the assay plate and shaken to mix. The reaction is allowed to proceed at room temperature for 60 minutes. A binding solution is then made from the kit components, comprised of 80% Solution A, 20% Solution B and binding reagent at a volume of 1/600 the total binding solution. The enzymatic reaction is stopped by addition of 60 μL of the binding solution to each well of the assay plates and the plates are sealed and shaken for 30 seconds. The plate was incubated at room temperature for at least one hour prior to determining the fluorescence polarization (FP). The parallel and perpendicular fluorescence of each well of the plate was measured using a Tecan Genios Pro plate reader (Tecan, Switzerland) or Perkin Elmer EnVision™ plate reader (Waltham, Mass.). Fluorescence polarization (mP) was calculated from the parallel (S) and perpendicular (P) fluorescence of each sample well and the analogous values for the median control well, containing only substrate (So and Po), using the following equation: Polarization (mP)=1000*(S/So−P/Po)/(S/So+P/Po).
Dose-inhibition profiles for each compound were characterized by fitting the mP data to a four-parameter equation given below.
An apparent (KM) for FAM-labeled cAMP of ˜10 uM was used.

[1] = Lab B, read-out: Human PDE2 Ki (nM) - Lab B
[2] = Lab B, read-out: Rhesus PDE2 Ki (nM) - Lab B
[3] = Lab A, read-out: Rhesus PDE2 Ki (nM) - Lab A
[4] = Lab A, read-out: Human PDE2 Ki (nM) - Lab A

Chain of human PDE2A1 (O00408 other isoform, or with tags, fused parts or gaps): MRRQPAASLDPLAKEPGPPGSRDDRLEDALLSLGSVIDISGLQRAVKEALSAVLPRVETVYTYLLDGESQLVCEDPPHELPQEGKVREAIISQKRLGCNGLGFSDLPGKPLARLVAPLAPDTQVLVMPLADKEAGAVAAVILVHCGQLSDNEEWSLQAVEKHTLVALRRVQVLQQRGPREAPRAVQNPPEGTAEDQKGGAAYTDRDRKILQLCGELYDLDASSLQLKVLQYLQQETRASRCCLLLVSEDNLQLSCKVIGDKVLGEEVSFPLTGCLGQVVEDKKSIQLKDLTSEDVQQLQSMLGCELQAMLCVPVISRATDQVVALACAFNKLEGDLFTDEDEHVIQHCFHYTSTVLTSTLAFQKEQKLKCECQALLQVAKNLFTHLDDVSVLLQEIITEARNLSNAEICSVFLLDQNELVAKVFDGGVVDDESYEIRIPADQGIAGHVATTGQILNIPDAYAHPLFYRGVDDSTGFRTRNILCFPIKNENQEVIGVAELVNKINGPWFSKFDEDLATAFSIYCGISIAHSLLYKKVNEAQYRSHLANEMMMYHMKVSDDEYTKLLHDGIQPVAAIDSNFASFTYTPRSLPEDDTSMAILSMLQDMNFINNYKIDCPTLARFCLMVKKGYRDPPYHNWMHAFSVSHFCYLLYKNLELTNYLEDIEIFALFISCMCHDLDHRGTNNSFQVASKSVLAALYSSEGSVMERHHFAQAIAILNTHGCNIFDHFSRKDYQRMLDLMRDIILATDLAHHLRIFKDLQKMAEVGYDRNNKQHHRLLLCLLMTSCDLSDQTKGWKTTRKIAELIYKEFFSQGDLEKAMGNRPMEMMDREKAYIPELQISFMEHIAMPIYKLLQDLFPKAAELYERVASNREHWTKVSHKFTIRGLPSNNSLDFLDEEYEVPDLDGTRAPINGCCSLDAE
Chain of Rhesus PDE2A3 (B3VTJ2 1-941): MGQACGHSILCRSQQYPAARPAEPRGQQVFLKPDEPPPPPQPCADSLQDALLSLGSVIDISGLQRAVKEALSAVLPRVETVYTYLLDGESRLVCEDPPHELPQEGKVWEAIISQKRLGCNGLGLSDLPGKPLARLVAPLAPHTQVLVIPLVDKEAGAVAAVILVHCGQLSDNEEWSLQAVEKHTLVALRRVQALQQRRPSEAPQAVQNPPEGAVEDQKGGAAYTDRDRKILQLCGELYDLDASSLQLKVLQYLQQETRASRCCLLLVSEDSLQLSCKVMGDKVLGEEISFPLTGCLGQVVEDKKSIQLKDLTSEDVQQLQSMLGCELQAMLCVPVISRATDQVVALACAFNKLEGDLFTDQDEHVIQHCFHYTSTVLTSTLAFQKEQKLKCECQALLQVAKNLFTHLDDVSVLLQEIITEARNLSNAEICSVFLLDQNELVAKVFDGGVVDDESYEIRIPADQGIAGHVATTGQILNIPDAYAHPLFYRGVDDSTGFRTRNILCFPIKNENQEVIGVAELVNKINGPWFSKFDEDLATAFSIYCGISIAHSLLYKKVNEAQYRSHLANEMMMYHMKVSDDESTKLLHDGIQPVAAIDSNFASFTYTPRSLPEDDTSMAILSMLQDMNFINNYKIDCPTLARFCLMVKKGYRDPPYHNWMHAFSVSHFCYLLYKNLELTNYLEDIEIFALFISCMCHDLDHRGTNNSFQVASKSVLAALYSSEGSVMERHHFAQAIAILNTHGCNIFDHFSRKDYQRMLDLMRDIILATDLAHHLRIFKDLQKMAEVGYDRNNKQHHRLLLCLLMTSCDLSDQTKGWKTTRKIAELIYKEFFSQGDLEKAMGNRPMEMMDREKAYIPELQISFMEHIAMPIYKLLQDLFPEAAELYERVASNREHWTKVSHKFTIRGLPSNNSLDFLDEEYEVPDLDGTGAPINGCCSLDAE

SMILES | Ki (human PDE2A1; [1]) | Ki (Rhesus PDE2A3; [2]) | Ki (Rhesus PDE2A3; [3]) | Ki (human PDE2A1; [4]) | Ki (Rhesus PDE2A3; Rhesus PDE2 Ki (nM) - Lab B, Lab B)
C[C@@H](NC(=O)c1cc(=O)[nH]c(N(C)C)n1)c1ccc(OC(F)(F)F)c(Cl)c1 [Example 3, (R)—N-(1-(3-chloro-4-(trifluoromethoxy)phenyl)ethyl)-2-(dimethylamino)-6-oxo-1,6-dihydropyrimidine-4-carboxamide] | 1.6 nM | 1.5 nM | 0.82 nM | – | –
C[C@@H](NC(=O)c1cc(=O)[nH]c(N2CC[C@@H](F)C2)n1)c1ccc(C(F)(F)F)cc1 [Example 11, 2-((R)-3-fluoropyrrolidin-1-yl)-6-oxo-N—((R)-1-(4-(trifluoromethyl)phenyl)ethyl)-1,6-dihydropyrimidine-4-carboxamide] | – | – | 30 nM | 18 nM | –
COCC1CCN(c2nc(C(=O)N[C@@H](c3ccc(C(F)(F)F)cc3)C(C)(C)C)cc(=O)[nH]2)C1 (stereo partly drawn) [Example 14, N—((R)-2,2-dimethyl-1-(4-(trifluoromethyl)phen)propyl)-2-(3-(methoxymethyl)pyrrolidin-1-yl)-6-oxo-1,6-dihydropyrimidine-4-carboxamide] | 0.34 nM | – | – | – | 0.41 nM
CSc1nc(C(=O)N[C@H](C)c2ccc(C(F)(F)F)cc2)cc(=O)[nH]1 [Example 15, (R)-2-(methylthio)-6-oxo-N-(1-(4-(trifluoromethyl)phenyl)ethyl)-1,6-dihydropyrimidine-4-carboxamide] | – | – | 46 nM | 31 nM | –
COc1nc(C(=O)N[C@H](C)c2ccc(C(F)(F)F)cc2)cc(=O)[nH]1 [Example 17, (R)-2-methoxy-6-oxo-N-(1-(4-(trifluoromethyl)phenyl)ethyl)-1,6-dihydropyrimidine-4-carboxamide] | – | – | 130 nM | 115 nM | –
CCOc1nc(C(=O)N[C@H](C)c2ccc(C(F)(F)F)cc2)cc(=O)[nH]1 [Example 18, (R)-2-ethoxy-6-oxo-N-(1-(4-(trifluoromethyl)phenyl)ethyl)-1,6-dihydropyrimidine-4-carboxamide] | – | – | 63 nM | 72 nM | –
COc1ccc(Oc2nc(C(=O)N[C@H](C)c3ccc(C(F)(F)F)cc3)cc(=O)[nH]2)cc1OC [Example 22, (R)-2-(3,4-dimethoxyphenoxy)-6-oxo-N-(1-(4-(trifluoromethyl)phenyl)ethyl)-1,6-dihydropyrimidine-4-carboxamide] | – | – | 727 nM | 988 nM | –
C[C@@H](NC(=O)c1cc(=O)[nH]c(N2CC(F)(F)C2)n1)c1ccc(C(F)(F)F)cc1 [Example 24, 2-(3,3-Difluoroazetidin-1-yl)-6-oxo-N-{(1R)-1-[4-(trifluoromethyl)phenyl]ethyl}-1,6-dihydropyrimidine-4-carboxamide] | – | – | 79 nM | 40 nM | –
O=C(N[C@@H](c1ccc(OC(F)(F)F)c(F)c1)C1CC1)c1cc(=O)[nH]c(N2CCCC2)n1 [Example 25, N-{(R)-cyclopropyl[3-fluoro-4-(trifluoromethoxy)phenyl]methyl}-6-oxo-2-pyrrolidin-1-yl-1,6-dihydropyrimidine-4-carboxamide] | – | – | 0.85 nM | 0.37 nM | –
C[C@@H](NC(=O)c1cc(=O)[nH]c(N2CCCC2)n1)c1ccc(OC(F)(F)F)cc1 [Example 28, 6-oxo-2-pyrrolidin-1-yl-N-{(1R)-1-[4-(trifluoromethoxy)phenyl]ethyl}-1,6-dihydropyrimidine-4-carboxamide] | – | – | 1.3 nM | 0.45 nM | –
CC(C)C(C)(NC(=O)c1cc(=O)[nH]c(N(C)C)n1)c1ccc(S(F)(F)(F)(F)F)cc1 (centres unmarked) [Example 39, 2-(dimethylamino)-N-{1,2-dimethyl-1-[4-(pentafluoro-λ^6-sulfanyl)phenyl]propyl}-6-oxo-1,6-dihydropyrimidine-4-carboxamide] | 12 nM | 8.7 nM | – | – | –

Continued, in another order:

Ki (human PDE2A1; [1]) | Ki (Rhesus PDE2A3; [2]) | Ki (Rhesus PDE2A3; [3]) | Ki (human PDE2A1; [4]) | SMILES | Ki (Rhesus PDE2A3; Rhesus PDE2 Ki (nM) - Lab B, Lab B)
0.34 nM | 0.45 nM | – | – | CN(C)c1nc(C(=O)NC(c2ccc(C3(C)CC3)c(F)c2)C(C)(C)C)cc(=O)[nH]1 (single isomer, unassigned) [Example 124, (R)- or (S)-2-(dimethylamino)-N-{1-[3-fluoro-4-(1-methylcyclopropyl)phenyl]-2,2-dimethylpropyl}-6-oxo-1,6-dihydropyrimidine-4-carboxamide] | –
– | – | 0.56 nM | 0.22 nM | CC[C@@H](NC(=O)c1cc(=O)[nH]c(N2CCCC2)n1)c1ccc(SC(F)(F)F)c(F)c1 [Example 29, N-[(1R)-1-{3-fluoro-4-[(trifluoromethyl)sulfanyl]phenyl}propyl]-6-oxo-2-pyrrolidin-1-yl-1,6-dihydropyrimidine-4-carboxamide] | –
7.7 nM | 4.9 nM | – | – | C[C@@H](NC(=O)c1cc(=O)[nH]c(N(C)C)n1)c1cc(F)c(C(F)(F)F)cc1F [Example 36, N-{(1R)-1-[2,5-difluoro-4-(trifluoromethyl)phenyl]ethyl}-2-(dimethylamino)-6-oxo-1,6-dihydropyrimidine-4-carboxamide] | –
3.6 nM | 3.4 nM | – | – | CN(C)c1nc(C(=O)NC2(c3ccc(C(C)(C)C)cc3)CC2)cc(=O)[nH]1 [Example 46, N-[1-(4-tert-butylphenyl)cyclopropyl]-2-(dimethylamino)-6-oxo-1,6-dihydropyrimidine-4-carboxamide] | –
2.2 nM | 2.3 nM | – | – | Cc1cc(C(F)(F)F)ccc1C(C)(C)NC(=O)c1cc(=O)[nH]c(N(C)C)n1 [Example 78, 2-(dimethylamino)-N-{1-methyl-1-[2-methyl-4-(trifluoromethyl)phenyl]ethyl}-6-oxo-1,6-dihydropyrimidine-4-carboxamide] | –
2.5 nM | 2 nM | – | – | CN(C)c1nc(C(=O)NC(C)(C)c2ccc(C(F)(F)F)cc2F)cc(=O)[nH]1 [Example 82, 2-(dimethylamino)-N-{1-[2-fluoro-4-(trifluoromethyl)phenyl]-1-methylethyl}-6-oxo-1,6-dihydropyrimidine-4-carboxamide] | –
2.4 nM | 2.3 nM | – | – | C[C@@H](NC(=O)c1cc(=O)[nH]c(N(C)C)n1)c1ccc(OC(F)(F)F)cc1F [Example 83, 2-(dimethylamino)-N-{(1R)-1-[2-fluoro-4-(trifluoromethoxy)phenyl]ethyl}-6-oxo-1,6-dihydropyrimidine-4-carboxamide] | –
2.5 nM | 3.5 nM | – | – | C[C@@H](NC(=O)c1cc(=O)[nH]c(N(C)C)n1)c1ccc(C(F)(F)F)c(F)c1F [Example 84, N-{(1R)-1-[2,3-difluoro-4-(trifluoromethyl)phenyl]ethyl}-2-(dimethylamino)-6-oxo-1,6-dihydropyrimidine-4-carboxamide] | –
3.6 nM | 4.9 nM | 2 nM | – | CN(C)c1nc(C(=O)N[C@@H](c2ccc(OC(F)(F)F)c(Cl)c2)C2CC2)cc(=O)[nH]1 [Example 85, N-[(R)-[3-chloro-4-(trifluoromethoxy)phenyl](cyclopropyl)methyl]-2-(dimethylamino)-6-oxo-1,6-dihydropyrimidine-4-carboxamide] | –
1.7 nM | 2.1 nM | 0.54 nM | – | CC(C)[C@@H](NC(=O)c1cc(=O)[nH]c(N(C)C)n1)c1ccc(OC(F)(F)F)c(Cl)c1 [Example 86, N-{(1R)-1-[3-chloro-4-(trifluoromethoxy)phenyl]-2-methylpropyl}-2-(dimethylamino)-6-oxo-1,6-dihydropyrimidine-4-carboxamide] | –
2.1 nM | 2.5 nM | – | – | C[C@H](NC(=O)c1cc(=O)[nH]c(N(C)C)n1)c1ccc(S(F)(F)(F)(F)F)cc1F [Example 117, (S)-2-(dimethylamino)-N-(1-(4-(pentafluorothio)-2-fluorophenyl)ethyl)-6-oxo-1,6-dihydropy-rimidine-4-carboxamide] | –
